Laboratory results taken from ChEMBL document CHEMBL6083281, “Development of a Fluorescence Probe for High-Throughput Screening of Allosteric Inhibitors Targeting TRAP1” (J Med Chem, 2024).

Each compound was assayed on HeLa (assay: Cytotoxicity against human HeLa cells assessed as reduction in cell viability incubated for 24 hrs by MTT assay). Details: not given.

Structure (SMILES) | IC50 [µM]
O=C(CCCCCCCCC[P+](c1ccccc1)(c1ccccc1)c1ccccc1)Oc1ccc(-c2cc(=S)ss2)cc1 | > 20
COc1cc(C)c(CCCCCCCCCC[P+](c2ccccc2)(c2ccccc2)c2ccccc2)cc1OC | 3.21
O=C(C/C(=C/c1ccccc1)C[P+](c1ccccc1)(c1ccccc1)c1ccccc1)C/C(=C\c1ccccc1)C[P+](c1ccccc1)(c1ccccc1)c1ccccc1 | > 20
Cc1c(C)c2c(c(C)c1O)CCC(C)(CCCCCCCCCC[P+](c1ccccc1)(c1ccccc1)c1ccccc1)O2 (stereo not given) | 1.45
COc1cc(COC(=O)CCCCC[P+](c2ccccc2)(c2ccccc2)c2ccccc2)c(OC)c2c1OCO2 | > 20
c1ccc([P+](Cc2c3ccccc3c(C[P+](c3ccccc3)(c3ccccc3)c3ccccc3)c3ccccc23)(c2ccccc2)c2ccccc2)cc1 | > 20
Cc1c(C)c2c(c(C)c1O)CCC(C)(CC[P+](c1ccccc1)(c1ccccc1)c1ccccc1)O2 (stereo not given) | > 20
O=C(c1ccccc1)C(O)(CCC[P+](c1ccccc1)(c1ccccc1)c1ccccc1)c1ccccc1 (stereo not given) | 17.6
CN(C)CCOc1ccc(/C(=C(/CCCCCCCCCC[P+](c2ccccc2)(c2ccccc2)c2ccccc2)c2ccccc2)c2ccccc2)cc1 | 0.94
COc1c(C)c(CCCCCCCCCC[P+](c2ccccc2)(c2ccccc2)c2ccccc2)c(OC)c(OC)c1OC | 1.65
CC1(C)CC(C(=O)OCCCCCCCCCC[P+](c2ccccc2)(c2ccccc2)c2ccccc2)C(C)(C)N1O (stereo not given) | 5.15
COC1=C(OC)C(=O)C(C[P+](c2ccccc2)(c2ccccc2)c2ccccc2)=C(C)C1=O | > 20
CC1(C)CC(C(=O)OCC[P+](c2ccccc2)(c2ccccc2)c2ccccc2)C(C)(C)N1O (stereo not given) | > 20
COc1c(Br)c(C)c(CCCCCCCCCC[P+](c2ccccc2)(c2ccccc2)c2ccccc2)c(OC)c1OC | 1.61
O=C(CCCCCCCCCC[P+](c1ccccc1)(c1ccccc1)c1ccccc1)Nc1nccs1 | 6.38
CC(C)(C)[Si](C)(C)O[C@H]1CC[C@]2(C)[C@H]1[C@H]2CCC[P+](c1ccccc1)(c1ccccc1)c1ccccc1 | 1.67
COC1=C(OC)C(=O)C(CCCCCCCCCC[P+](c2ccccc2)(c2ccccc2)c2ccccc2)=C(C)C1=O [MITOQUINONE CATION] | 4.3

These compounds were tested against T1, Heat shock protein 75 kDa, mitochondrial (Homo sapiens, UniProt Q12931) (assay: Binding affinity to TRAP1 (unknown origin) assessed as dissociation constant incubated for 15 mins by MST analysis). Details: not given.
T1 sequence (Q12931 whole entry): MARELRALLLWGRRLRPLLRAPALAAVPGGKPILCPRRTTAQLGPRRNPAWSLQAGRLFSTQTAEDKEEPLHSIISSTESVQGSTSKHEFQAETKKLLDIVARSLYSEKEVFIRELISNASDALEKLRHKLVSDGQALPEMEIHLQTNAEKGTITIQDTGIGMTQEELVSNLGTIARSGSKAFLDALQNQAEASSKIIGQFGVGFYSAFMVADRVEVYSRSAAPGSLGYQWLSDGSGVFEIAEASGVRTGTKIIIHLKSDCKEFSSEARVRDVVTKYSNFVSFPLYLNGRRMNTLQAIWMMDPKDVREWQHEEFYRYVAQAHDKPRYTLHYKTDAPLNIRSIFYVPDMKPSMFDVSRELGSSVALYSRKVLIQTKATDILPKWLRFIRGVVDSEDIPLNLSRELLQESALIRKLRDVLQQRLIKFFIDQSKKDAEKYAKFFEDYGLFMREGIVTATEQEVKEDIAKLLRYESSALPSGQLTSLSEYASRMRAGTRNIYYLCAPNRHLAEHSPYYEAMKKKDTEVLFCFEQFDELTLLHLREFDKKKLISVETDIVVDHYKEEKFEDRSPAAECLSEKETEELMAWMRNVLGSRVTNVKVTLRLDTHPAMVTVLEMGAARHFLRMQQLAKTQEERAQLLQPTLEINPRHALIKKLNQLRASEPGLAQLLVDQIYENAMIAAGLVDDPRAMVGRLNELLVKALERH

Kd [µM] | Structure (SMILES)
4.41 | CN(C)CCOc1ccc(/C(=C(/CCCCCCCCCC[P+](c2ccccc2)(c2ccccc2)c2ccccc2)c2ccccc2)c2ccccc2)cc1
0.37 | CN(CCCCCCCC[P+](c1ccccc1)(c1ccccc1)c1ccccc1)C(=O)c1ccccc1C1=c2cc3c4c(c2Oc2c1cc1c5c2CCCN5CCC1)CCC[N+]=4CCC3

Each compound was assayed against T1, Heat shock protein 75 kDa, mitochondrial (assay: Binding affinity to TRAP1 (unknown origin) assessed as dissociation constant by MST analysis). Details: not given.

Kd [µM] | Structure (SMILES)
6.6 | COC1=C(OC)C(=O)C(CCCCCCCCCC[P+](c2ccccc2)(c2ccccc2)c2ccccc2)=C(C)C1=O [MITOQUINONE CATION]

The compounds below were run on CWR22R (assay: Cytotoxicity against human 22Rv1 cells assessed as reduction in cell viability incubated for 24 hrs by MTT assay). Details: 22Rv1, 24 h.

Structure (SMILES) | IC50 [µM]
O=C(CCCCCCCCC[P+](c1ccccc1)(c1ccccc1)c1ccccc1)Oc1ccc(-c2cc(=S)ss2)cc1 | > 20
COc1cc(C)c(CCCCCCCCCC[P+](c2ccccc2)(c2ccccc2)c2ccccc2)cc1OC | 0.502
O=C(C/C(=C/c1ccccc1)C[P+](c1ccccc1)(c1ccccc1)c1ccccc1)C/C(=C\c1ccccc1)C[P+](c1ccccc1)(c1ccccc1)c1ccccc1 | 17.4
Cc1c(C)c2c(c(C)c1O)CCC(C)(CCCCCCCCCC[P+](c1ccccc1)(c1ccccc1)c1ccccc1)O2 (stereo not given) | 0.183
COc1cc(COC(=O)CCCCC[P+](c2ccccc2)(c2ccccc2)c2ccccc2)c(OC)c2c1OCO2 | 18.3
c1ccc([P+](Cc2c3ccccc3c(C[P+](c3ccccc3)(c3ccccc3)c3ccccc3)c3ccccc23)(c2ccccc2)c2ccccc2)cc1 | > 20
Cc1c(C)c2c(c(C)c1O)CCC(C)(CC[P+](c1ccccc1)(c1ccccc1)c1ccccc1)O2 (stereo not given) | 17.4
O=C(c1ccccc1)C(O)(CCC[P+](c1ccccc1)(c1ccccc1)c1ccccc1)c1ccccc1 (stereo not given) | 3.49
CN(C)CCOc1ccc(/C(=C(/CCCCCCCCCC[P+](c2ccccc2)(c2ccccc2)c2ccccc2)c2ccccc2)c2ccccc2)cc1 | 0.62
COc1c(C)c(CCCCCCCCCC[P+](c2ccccc2)(c2ccccc2)c2ccccc2)c(OC)c(OC)c1OC | 0.385
CC1(C)CC(C(=O)OCCCCCCCCCC[P+](c2ccccc2)(c2ccccc2)c2ccccc2)C(C)(C)N1O (stereo not given) | 0.601
COC1=C(OC)C(=O)C(C[P+](c2ccccc2)(c2ccccc2)c2ccccc2)=C(C)C1=O | 16.3
CC1(C)CC(C(=O)OCC[P+](c2ccccc2)(c2ccccc2)c2ccccc2)C(C)(C)N1O (stereo not given) | > 20
COc1c(Br)c(C)c(CCCCCCCCCC[P+](c2ccccc2)(c2ccccc2)c2ccccc2)c(OC)c1OC | 0.37
O=C(CCCCCCCCCC[P+](c1ccccc1)(c1ccccc1)c1ccccc1)Nc1nccs1 | 2.25
CC(C)(C)[Si](C)(C)O[C@H]1CC[C@]2(C)[C@H]1[C@H]2CCC[P+](c1ccccc1)(c1ccccc1)c1ccccc1 | 0.86
COC1=C(OC)C(=O)C(CCCCCCCCCC[P+](c2ccccc2)(c2ccccc2)c2ccccc2)=C(C)C1=O [MITOQUINONE CATION] | 0.597

Each compound was assayed against T1, Heat shock protein 75 kDa, mitochondrial. Details: not given.

Structure (SMILES) | IC50 [µM]
O=C(CCCCCCCCC[P+](c1ccccc1)(c1ccccc1)c1ccccc1)Oc1ccc(-c2cc(=S)ss2)cc1 | 8.94
COc1cc(C)c(CCCCCCCCCC[P+](c2ccccc2)(c2ccccc2)c2ccccc2)cc1OC | 3.8
O=C(C/C(=C/c1ccccc1)C[P+](c1ccccc1)(c1ccccc1)c1ccccc1)C/C(=C\c1ccccc1)C[P+](c1ccccc1)(c1ccccc1)c1ccccc1 | > 20
Cc1c(C)c2c(c(C)c1O)CCC(C)(CCCCCCCCCC[P+](c1ccccc1)(c1ccccc1)c1ccccc1)O2 (stereo not given) | 8.42
Cc1c(C)c2c(c(C)c1O)CCC(C)(CC[P+](c1ccccc1)(c1ccccc1)c1ccccc1)O2 (stereo not given) | > 20
O=C(c1ccccc1)C(O)(CCC[P+](c1ccccc1)(c1ccccc1)c1ccccc1)c1ccccc1 (stereo not given) | > 20
COc1c(C)c(CCCCCCCCCC[P+](c2ccccc2)(c2ccccc2)c2ccccc2)c(OC)c(OC)c1OC | 3.77
COC1=C(OC)C(=O)C(C[P+](c2ccccc2)(c2ccccc2)c2ccccc2)=C(C)C1=O | > 20
CC1(C)CC(C(=O)OCC[P+](c2ccccc2)(c2ccccc2)c2ccccc2)C(C)(C)N1O (stereo not given) | > 20
COc1c(Br)c(C)c(CCCCCCCCCC[P+](c2ccccc2)(c2ccccc2)c2ccccc2)c(OC)c1OC | 4.07
CC(C)(C)[Si](C)(C)O[C@H]1CC[C@]2(C)[C@H]1[C@H]2CCC[P+](c1ccccc1)(c1ccccc1)c1ccccc1 | 8.05
COC1=C(OC)C(=O)C(CCCCCCCCCC[P+](c2ccccc2)(c2ccccc2)c2ccccc2)=C(C)C1=O [MITOQUINONE CATION] | 5.2

Further lines, results first:

IC50 [µM] | Structure (SMILES)
> 20 | COc1cc(COC(=O)CCCCC[P+](c2ccccc2)(c2ccccc2)c2ccccc2)c(OC)c2c1OCO2
9.96 | c1ccc([P+](Cc2c3ccccc3c(C[P+](c3ccccc3)(c3ccccc3)c3ccccc3)c3ccccc23)(c2ccccc2)c2ccccc2)cc1
2.53 | CN(C)CCOc1ccc(/C(=C(/CCCCCCCCCC[P+](c2ccccc2)(c2ccccc2)c2ccccc2)c2ccccc2)c2ccccc2)cc1
4.75 | CC1(C)CC(C(=O)OCCCCCCCCCC[P+](c2ccccc2)(c2ccccc2)c2ccccc2)C(C)(C)N1O (stereo not given)
14.1 | O=C(CCCCCCCCCC[P+](c1ccccc1)(c1ccccc1)c1ccccc1)Nc1nccs1

Target: T1, Heat shock protein 75 kDa, mitochondrial
Details: not given
Remark: another data set of the same source

Kd [µM] | Structure (SMILES)
1.52 | CN(CCCCCC[P+](c1ccccc1)(c1ccccc1)c1ccccc1)C(=O)c1ccccc1C1=c2cc3c4c(c2Oc2c1cc1c5c2CCCN5CCC1)CCC[N+]=4CCC3
0.81 | CCN(CC)c1ccc2c(-c3ccccc3C(=O)N(C)CCCCCC[P+](c3ccccc3)(c3ccccc3)c3ccccc3)c3ccc(=[N+](CC)CC)cc-3oc2c1
2.19 | CCN(CC)c1ccc2c(-c3ccccc3C(=O)N(C)CCCCCCCC[P+](c3ccccc3)(c3ccccc3)c3ccccc3)c3ccc(=[N+](CC)CC)cc-3oc2c1
0.27 | CN(CCCCCCCC[P+](c1ccccc1)(c1ccccc1)c1ccccc1)C(=O)c1ccccc1C1=c2cc3c4c(c2Oc2c1cc1c5c2CCCN5CCC1)CCC[N+]=4CCC3

What follows are compounds tested against Heat shock protein 75 kDa, mitochondrial (Homo sapiens, UniProt Q12931, F353A/F531A). Details: not given.
Heat shock protein 75 kDa, mitochondrial (Homo sapiens, UniProt Q12931, F353A/F531A), sequence (Q12931 60-704 F353A/F531A limits assumed): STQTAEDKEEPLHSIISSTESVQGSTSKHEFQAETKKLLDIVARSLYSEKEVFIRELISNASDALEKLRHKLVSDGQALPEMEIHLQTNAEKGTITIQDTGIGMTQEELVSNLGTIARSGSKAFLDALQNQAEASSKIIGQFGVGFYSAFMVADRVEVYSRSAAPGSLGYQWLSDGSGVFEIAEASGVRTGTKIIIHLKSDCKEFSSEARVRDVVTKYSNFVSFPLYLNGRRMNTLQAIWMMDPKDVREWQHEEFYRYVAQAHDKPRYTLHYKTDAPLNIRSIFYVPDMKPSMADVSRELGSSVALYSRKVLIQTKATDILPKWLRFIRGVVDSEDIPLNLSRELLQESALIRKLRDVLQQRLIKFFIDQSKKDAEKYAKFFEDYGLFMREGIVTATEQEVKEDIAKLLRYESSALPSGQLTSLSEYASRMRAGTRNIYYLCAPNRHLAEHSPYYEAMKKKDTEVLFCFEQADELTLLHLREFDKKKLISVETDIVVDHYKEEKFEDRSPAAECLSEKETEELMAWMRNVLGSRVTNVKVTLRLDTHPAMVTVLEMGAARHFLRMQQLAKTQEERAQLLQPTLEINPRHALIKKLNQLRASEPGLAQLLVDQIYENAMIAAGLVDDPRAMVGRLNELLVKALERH

Kd [µM] | Structure (SMILES)
28 | CN(C)CCOc1ccc(/C(=C(/CCCCCCCCCC[P+](c2ccccc2)(c2ccccc2)c2ccccc2)c2ccccc2)c2ccccc2)cc1
5.21 | CN(CCCCCCCC[P+](c1ccccc1)(c1ccccc1)c1ccccc1)C(=O)c1ccccc1C1=c2cc3c4c(c2Oc2c1cc1c5c2CCCN5CCC1)CCC[N+]=4CCC3
